The experiment is described as follows: GFP-wavelength compound autofluorescence in cells – imaging, high-content imaging, artefact control, dose response (AID 2124).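 As to all read-outs here: cells exposed to compound for 48 hours before fixing.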 The note with it: cells, GFP-channel autofluorescence, high-content imaging, at 10 µM; for z-score: stronger effect = higher value.

Inconclusive results are not listed. The source made the active and inactive calls. No rule for the calls is given here; tested in MIN6 cells.

As for `CCn1c2ccccc2c2nnc(SCC(=O)Nc3cc(C)on3)nc21`, the z-score was -0.33 (inactive) and the cell count turned out to be 3100 cells.

Regarding `CCOC(=O)N1CCN(S(=O)(=O)c2ccc3c(c2)oc(=O)n3C)CC1`, the z-score was -0.31 (inactive) and the cell count came out at 2780 cells.

Regarding `CC(=O)c1c(COC(=O)c2ccncc2)nc2ccccc2[n+]1[O-]`, the z-score was -0.33 (inactive) and the cell count worked out at 2880 cells.

As to `CC(C)C(c1nnnn1C1CCCC1)N1CCOCC1` (configuration not stated), the z-score was -0.33 (inactive) and the cell count is 3180 cells.

As for `Cc1cc(C)cc(NC(=O)/C=C/c2ccc([N+](=O)[O-])s2)c1`, the z-score was 0.02 and the cell count turned out to be 960 cells.

In the case of `CC(Sc1ccccc1)C(=O)NN=C1CCCCCC1` (configuration not stated), the z-score is -0.39 (inactive) and the cell count was determined as 2920 cells.

With `CN1C=CC2=C(C#N)C(N)C(C#N)(C#N)C(c3ccccc3)C2C1` (configuration not stated), the z-score was 0.32 and the cell count amounted to 2840 cells.

In the case of `CCOc1ccc(OCC)c(-c2c(=O)n(OCc3ccc(Cl)cc3)c3ccccc3[n+]2[O-])c1`, the z-score is -0.38 (inactive) and the cell count was 2760 cells.

Take `CC(C)N1CCc2c(sc(NC(=O)c3cc4cc([N+](=O)[O-])ccc4s3)c2C(N)=O)C1`: the z-score was -0.23 (inactive) and the cell count was 177 cells.

For the compound `O=C(NCc1ccc(F)cc1)C1CCCN(S(=O)(=O)c2cccnc2)C1` (configuration not stated), the z-score was -0.33 (inactive) and the cell count stood at 3070 cells.

Take `O=C1S/C(=C/c2ccc(N3CCOCC3)o2)C(=O)N1Cc1ccc(F)cc1`: the z-score is 0.51 and the cell count came out at 3300 cells.

As for `CC1(C)c2ccccc2N2CC(=O)NC21/C=C/c1ccco1` (configuration not stated), the z-score was -0.33 (inactive) and the cell count was found to be 2980 cells.

Turning to `COC(=O)c1c(NC(=O)CC2Nc3cc(C)c(C)cc3NC2=O)sc(C)c1C` (configuration not stated), the z-score is -0.38 (inactive) and the cell count is 3120 cells.

`C1=C(N2CCOCC2)/C(=C/c2nc3ccccc3[nH]2)CC1`: the z-score was -0.33 (inactive) and the cell count is 3040 cells.

On to `CC1CCCCC1NC(=O)COC(=O)c1c2c(nc3ccccc13)/C(=C/c1ccco1)CC2` (configuration not stated), for which the z-score was -0.35 (inactive) and the cell count was 2820 cells.

For `CC(=O)Nc1sc(/C(C#N)=C\c2cccc(Cl)c2)nc1-c1ccc(C)cc1`, the z-score was 1.12 and the cell count was 3000 cells.

Turning to `N#C/C(=C\c1ccc(N2CCOCC2)o1)c1nc2ccccc2[nH]1`, the z-score was 0.96 and the cell count amounted to 2400 cells.

For the compound `C=CCC(c1ccccc1)N(C(C)=O)c1ccco1` (configuration not stated), the z-score is -0.33 (inactive) and the cell count worked out at 3430 cells.

On to `CC(=Nc1ccc(C)cc1C)c1sc2ccccc2c1O`, for which the z-score was -0.3 (inactive) and the cell count came to 2760 cells.

With `CCN(CC)CCN1C(=O)c2oc3ccccc3c(=O)c2C1c1ccccc1` (configuration not stated), the z-score was -0.33 (inactive) and the cell count was 3330 cells.

With `CC1(C)Cc2c(ccc3ccccc23)C(c2cc3ccccc3oc2=O)=N1`, the z-score is -0.33 (inactive) and the cell count was 2730 cells.

Regarding `COc1cccc(N2CCN(c3ncccn3)CC2)c1`, the z-score was -0.33 (inactive) and the cell count worked out at 3230 cells.

Take `Cn1c(=O)c(NC2CCCCC2)c2c3c(cccc31)C(=O)c1ccccc1-2`: the z-score is 3.32 and the cell count amounted to 3050 cells.

`CCN1CCN(C2=CC3=CC(=C(C#N)C#N)CCC3CC2)CC1` (configuration not stated): the z-score is 1.63 and the cell count came to 3180 cells.

For `Cc1ccn2c(NC3CCCCC3)c(C)nc2c1`, the z-score is -0.39 (inactive) and the cell count came to 2990 cells.

As for `C=CCSc1nnc(NC(=O)c2cccc(S(=O)(=O)N3CCOCC3)c2)s1`, the z-score was -0.38 (inactive) and the cell count was found to be 2670 cells.

With `Cc1ccccc1-c1nnc(-c2ccc(Cl)cc2)o1`, the z-score is -0.26 (inactive) and the cell count was 2820 cells.

Regarding `O=C(CSc1ccc(-c2ccccc2)nn1)NCC1CCCO1` (configuration not stated), the z-score was -0.38 (inactive) and the cell count was 2970 cells.

For `CCOC(=O)c1ccc(NC(=O)COc2ccc(S(=O)(=O)NC(C)CC)cc2)cc1` (configuration not stated), the z-score is -0.33 (inactive) and the cell count came to 3160 cells.

On to `Cc1ccc(S(=O)(=O)N2CCCC2C(=O)N(C)Cc2cccs2)cc1` (configuration not stated), for which the z-score is -0.39 (inactive) and the cell count was 3120 cells.

Turning to `CN(C)C(=O)C12CCC(C)(c3nc4ccccc4nc31)C2(C)C` (configuration not stated), the z-score was -0.38 (inactive) and the cell count was determined as 3350 cells.

Turning to `CC1CCCC(C)N1C(=O)CSc1nnc(-c2cccs2)o1` (configuration not stated), the z-score is -0.33 (inactive) and the cell count was found to be 2440 cells.

Turning to `COc1ccccc1NC(=O)/C=C1\SCC(=O)N1C`, the z-score is -0.25 (inactive) and the cell count was 3000 cells.

With `CCCC1C2CN(C(C)C)CC=C2C(C#N)=C(N)C1(C#N)C#N` (configuration not stated), the z-score was 0.45 and the cell count is 2800 cells.

Turning to `Cc1ccc(C2CC(=O)NC(SCc3ccccc3)=C2C#N)o1` (configuration not stated), the z-score is -0.33 (inactive) and the cell count turned out to be 3270 cells.

Regarding `COCCNC(=O)c1onc(CSc2cccc(C)c2)c1C(=O)O`, the z-score was -0.39 (inactive) and the cell count came to 3170 cells.

Regarding `COc1ccc(Cl)cc1NC(=O)c1c(-c2ccccc2)noc1C`, the z-score was -0.39 (inactive) and the cell count was determined as 3300 cells.

Take `Cc1nnc(NC(=O)c2sc3nc(-c4cccs4)cc(C(F)(F)F)c3c2N)s1`: the z-score is 0.85 and the cell count was 2610 cells.

On to `CN1CCNC(=O)C1CC(=O)NCCC1=CCCCC1` (configuration not stated), for which the z-score was -0.38 (inactive) and the cell count is 3160 cells.

As to `COc1cccc(NC(=O)Cn2c(-c3cncs3)nc3ccccc32)c1`, the z-score was -0.39 (inactive) and the cell count is 3160 cells.

For the compound `O=C(Nc1ccc(C2CCCCC2)cc1)C1CCCN(c2ncccn2)C1` (configuration not stated), the z-score was -0.38 (inactive) and the cell count stood at 2990 cells.

As to `Cc1ccc(NC(=O)CCl)c(C)c1`, the z-score was -0.33 (inactive) and the cell count was 2480 cells.

As for `Cc1cc2nc3c(=O)n(Cc4ccccc4)c(=O)[nH]c3nc2cc1N`, the z-score is -0.33 (inactive) and the cell count was found to be 2710 cells.

Turning to `CC1CCN(S(=O)(=O)c2ccc3c(c2)c(=O)c(C(=O)N2CCCCC2)cn3C)CC1`, the z-score was -0.33 (inactive) and the cell count turned out to be 2850 cells.

On to `Cc1cc(C2C(C#N)=C(N)Oc3n[nH]c(C)c32)c(C)s1` (configuration not stated), for which the z-score is -0.25 (inactive) and the cell count came to 3010 cells.

On to `CCc1cc2c(CN3CCN(CCO)CC3)cc(=O)oc2cc1O`, for which the z-score is -0.38 (inactive) and the cell count was 3140 cells.

As for `COc1ccccc1NC(=O)COC(=O)C1CC2C=CC1C2` (configuration not stated), the z-score is -0.25 (inactive) and the cell count was 2990 cells.

Take `CC(C)(CNS(=O)(=O)c1ccc(Cl)cc1)N1CCCCC1`: the z-score is -0.34 (inactive) and the cell count was determined as 3730 cells.

With `CCOC(=O)/C(C#N)=C/C=C1\C=Cc2ccccc2N1CC`, the z-score was -0.28 (inactive) and the cell count amounted to 2720 cells.

As to `C=CCn1c(-c2oc3nc(-c4ccccc4)cc(-c4ccccc4)c3c2N)n[nH]c1=S`, the z-score was -0.33 (inactive) and the cell count was determined as 2820 cells.

Turning to `COc1cccc(NC(=O)N2CCN(c3nnnn3-c3ccccc3)CC2)c1`, the z-score was -0.33 (inactive) and the cell count was 2880 cells.

Turning to `CC(=O)OC(C(=O)NCc1ccc(F)cc1)c1ccccn1` (configuration not stated), the z-score was -0.39 (inactive) and the cell count came out at 2840 cells.

On to `O=C(NC1C=CS(=O)(=O)C1)c1sc2ccccc2c1Cl` (configuration not stated), for which the z-score was -0.38 (inactive) and the cell count amounted to 2120 cells.

As for `O=C(/C=C/c1c[nH]c2ccccc12)c1c(O)n(CCc2ccccc2)c(=O)[nH]c1=O`, the z-score was 2.73 and the cell count amounted to 2920 cells.

Regarding `COc1cc2c(cc1OC)-c1nncn1C(C)(C)C2`, the z-score is -0.32 (inactive) and the cell count came out at 3220 cells.

With `CCN1CC=C2C(C#N)=C(N)C(C#N)(C#N)[C@H](c3cccc(OC)c3OC)[C@H]2C1`, the z-score is 0.28 and the cell count was found to be 2790 cells.

`CCN1C(=O)/C(=C/C=C2\N(CC)c3cc(S(=O)(=O)N(C)C)ccc3N2c2ccccc2)SC1=S`: the z-score was 0.11 and the cell count is 2840 cells.

For the compound `Nc1c(C(=O)NC2CCCC2)sc2nc(-c3cccs3)ccc12`, the z-score was -0.31 (inactive) and the cell count is 2460 cells.

As for `COc1cc(OC)cc(C(=O)Nc2cccc(C(C)=O)c2)c1`, the z-score is -0.39 (inactive) and the cell count amounted to 3260 cells.

With `Oc1ccc(Cl)cc1C1=Nc2ccccc2N=C(c2ccco2)C1`, the z-score is -0.35 (inactive) and the cell count stood at 2660 cells.

`CCn1ncc(Br)c1C(=O)Nc1sc2c(c1C(N)=O)CCC2`: the z-score was -0.39 (inactive) and the cell count is 3350 cells.

As to `CCCCCCc1cc2cc(-c3nnc(-c4ccccc4O)o3)c(=O)oc2cc1O`, the z-score was -0.21 (inactive) and the cell count turned out to be 2760 cells.

Regarding `Cn1ncc2c1ncn1nc(CCc3ccccc3)nc21`, the z-score is -0.33 (inactive) and the cell count was 2710 cells.

Take `O=C1C=C(Nc2ccc(O)cc2)CC(c2ccco2)C1` (configuration not stated): the z-score is -0.39 (inactive) and the cell count stood at 3020 cells.

As to `Cc1[nH]n(-c2ccc([N+](=O)[O-])cc2)c(=O)c1C=NCCN1CCN(C(=O)c2ccccc2F)CC1`, the z-score is -0.26 (inactive) and the cell count worked out at 3100 cells.

With `CN(C)c1nc(N)nc(/C(C#N)=C/C2CC3C=CC2C3)n1` (configuration not stated), the z-score is -0.33 (inactive) and the cell count came out at 2780 cells.

Values taken from PubChem BioAssay AID2124 (Sanford-Burnham Center for Chemical Genomics, 2009).
